Changes are numbered by the printed parent chain.
What was measured:
ALK3 = ALK3 (Homo sapiens, UniProt P36894); experiment: TR-FRET enzymatic ALK kinase assay, ALK3
Procedure: (§1) Briefly, the ALKs enzymatic assay was initiated by dispense 2.5 μl enzyme in 1× kinase reaction buffer. The assay plate was then added with compounds followed by incubation at room temperature for 10 minutes. Then 2.5 μl/well substrate was added.

ALK5 = molecular target: T1, ALK5 (Homo sapiens, UniProt P36897); experiment: TR-FRET enzymatic ALK kinase assay, ALK5
T1 sequence (P36897 34-503): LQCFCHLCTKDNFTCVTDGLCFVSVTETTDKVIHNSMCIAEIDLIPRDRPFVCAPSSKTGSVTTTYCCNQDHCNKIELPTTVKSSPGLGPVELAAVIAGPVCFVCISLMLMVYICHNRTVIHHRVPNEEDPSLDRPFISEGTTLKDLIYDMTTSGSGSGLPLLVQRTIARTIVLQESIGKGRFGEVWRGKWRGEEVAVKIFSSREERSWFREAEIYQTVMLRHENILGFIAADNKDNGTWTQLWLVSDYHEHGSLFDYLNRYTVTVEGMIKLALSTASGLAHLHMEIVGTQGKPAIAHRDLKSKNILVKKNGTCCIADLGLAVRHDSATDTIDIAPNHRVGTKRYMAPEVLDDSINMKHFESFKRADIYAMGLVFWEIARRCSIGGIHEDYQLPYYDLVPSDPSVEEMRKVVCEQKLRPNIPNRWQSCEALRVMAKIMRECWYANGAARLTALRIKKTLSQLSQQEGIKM
Procedure: Six ALK kinase enzyme assays were developed for determination of compound activities on ALK1, ALK2, ALK3, ALK4, ALK5 and ALK6.
as §1

[1] = Cell-based assay, TGFb1 (Cell IC50)
ALK4 = molecular target: T2, ALK4 (Homo sapiens, UniProt P36896); experiment: TR-FRET enzymatic ALK kinase assay, ALK4
T2 sequence (P36896 24-505): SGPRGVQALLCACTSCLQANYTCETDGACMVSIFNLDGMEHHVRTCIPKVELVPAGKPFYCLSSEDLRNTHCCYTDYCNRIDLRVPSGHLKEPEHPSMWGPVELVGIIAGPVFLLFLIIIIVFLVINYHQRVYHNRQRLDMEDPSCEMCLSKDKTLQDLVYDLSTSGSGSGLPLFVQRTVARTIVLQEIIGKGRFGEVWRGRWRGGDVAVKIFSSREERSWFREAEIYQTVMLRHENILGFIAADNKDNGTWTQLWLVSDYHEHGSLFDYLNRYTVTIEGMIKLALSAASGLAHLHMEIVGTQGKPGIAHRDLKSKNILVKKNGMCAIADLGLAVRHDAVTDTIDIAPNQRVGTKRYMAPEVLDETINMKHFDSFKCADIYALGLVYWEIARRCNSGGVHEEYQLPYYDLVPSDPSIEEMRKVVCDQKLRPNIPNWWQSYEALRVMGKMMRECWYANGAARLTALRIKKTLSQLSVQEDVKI
Procedure: as §1

ALK1 = ALK1 (Homo sapiens, UniProt P37023); experiment: TR-FRET enzymatic ALK kinase assay, ALK1
ALK1, sequence (P37023 22-503): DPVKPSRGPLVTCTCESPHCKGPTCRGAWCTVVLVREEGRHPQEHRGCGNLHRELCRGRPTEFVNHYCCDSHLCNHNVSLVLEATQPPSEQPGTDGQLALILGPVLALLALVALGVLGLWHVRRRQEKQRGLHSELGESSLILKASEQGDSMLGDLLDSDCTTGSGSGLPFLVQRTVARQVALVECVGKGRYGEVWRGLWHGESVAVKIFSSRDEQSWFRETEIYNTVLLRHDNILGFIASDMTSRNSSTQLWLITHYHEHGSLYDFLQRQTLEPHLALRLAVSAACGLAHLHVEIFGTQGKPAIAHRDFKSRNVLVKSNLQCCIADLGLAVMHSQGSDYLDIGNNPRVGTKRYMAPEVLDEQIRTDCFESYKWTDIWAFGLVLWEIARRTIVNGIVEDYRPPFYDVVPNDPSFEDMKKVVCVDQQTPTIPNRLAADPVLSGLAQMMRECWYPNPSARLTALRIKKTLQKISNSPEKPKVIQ
Procedure: as §1

ALK2 [2] = molecular target: T3, ALK2 (Homo sapiens, UniProt Q04771); experiment: TR-FRET enzymatic ALK kinase assay, ALK2
T3 sequence (Q04771 21-509): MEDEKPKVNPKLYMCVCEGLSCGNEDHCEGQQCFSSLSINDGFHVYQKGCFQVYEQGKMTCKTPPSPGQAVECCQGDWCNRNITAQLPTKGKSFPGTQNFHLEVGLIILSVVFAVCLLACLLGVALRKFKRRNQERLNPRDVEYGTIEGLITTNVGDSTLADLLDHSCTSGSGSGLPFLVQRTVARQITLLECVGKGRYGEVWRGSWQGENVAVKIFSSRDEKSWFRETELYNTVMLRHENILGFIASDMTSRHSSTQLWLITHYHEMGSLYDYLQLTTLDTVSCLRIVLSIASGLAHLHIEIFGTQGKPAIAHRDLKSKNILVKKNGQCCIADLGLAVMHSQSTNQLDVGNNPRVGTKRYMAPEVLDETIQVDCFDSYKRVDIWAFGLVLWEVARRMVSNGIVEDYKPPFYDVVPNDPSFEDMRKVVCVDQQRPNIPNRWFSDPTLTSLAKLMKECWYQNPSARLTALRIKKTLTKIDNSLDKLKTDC
Procedure: as §1

ALK6 = ALK6 (Homo sapiens, UniProt O00238); experiment: TR-FRET enzymatic ALK kinase assay, ALK6
ALK6, sequence (O00238 14-502): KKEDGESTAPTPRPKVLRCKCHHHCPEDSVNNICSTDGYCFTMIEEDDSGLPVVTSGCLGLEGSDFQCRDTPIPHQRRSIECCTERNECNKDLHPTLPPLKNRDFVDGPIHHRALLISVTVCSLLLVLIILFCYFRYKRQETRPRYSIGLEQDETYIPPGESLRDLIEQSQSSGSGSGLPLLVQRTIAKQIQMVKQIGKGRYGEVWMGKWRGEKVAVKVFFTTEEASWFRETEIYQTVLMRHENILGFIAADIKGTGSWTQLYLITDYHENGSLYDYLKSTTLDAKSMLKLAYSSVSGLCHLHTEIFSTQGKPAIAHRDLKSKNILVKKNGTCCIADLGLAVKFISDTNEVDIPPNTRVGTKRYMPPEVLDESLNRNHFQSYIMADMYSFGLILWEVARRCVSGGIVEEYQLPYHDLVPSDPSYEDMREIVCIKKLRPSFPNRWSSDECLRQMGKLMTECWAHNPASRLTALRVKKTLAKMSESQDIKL
Procedure: as §1

ALK2 [3] = molecular target: T4, ALK2 (Mus musculus, UniProt P37172); experiment: HTRF pSMAD1 cell-based ALK2 assay (C2C12 cells, BMP6 as agonist); details: cell-based assay, BMP6; read-out: Cell IC50 BMP6
T4 construct: The C2C12 cell line was selected for the measurement of ALK2 activity using BMP6 as the agonist; host or cells: C2C12
T4 sequence (P37172 21-509): T3 sequence (Q04771 21-509) with M1V, P10Q, L121I, D162E, P310S
Outline: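 Cells pre-starved, plated in 0.1% FBS medium for 4 h, compound added for 30 min, then stimulated 30 min with BMP9 (BAOEC) or BMP6 (C2C12). Phospho-SMAD1 measured by HTRF after overnight room-temperature detection incubation.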

ALK3, sequence (P36894 24-532): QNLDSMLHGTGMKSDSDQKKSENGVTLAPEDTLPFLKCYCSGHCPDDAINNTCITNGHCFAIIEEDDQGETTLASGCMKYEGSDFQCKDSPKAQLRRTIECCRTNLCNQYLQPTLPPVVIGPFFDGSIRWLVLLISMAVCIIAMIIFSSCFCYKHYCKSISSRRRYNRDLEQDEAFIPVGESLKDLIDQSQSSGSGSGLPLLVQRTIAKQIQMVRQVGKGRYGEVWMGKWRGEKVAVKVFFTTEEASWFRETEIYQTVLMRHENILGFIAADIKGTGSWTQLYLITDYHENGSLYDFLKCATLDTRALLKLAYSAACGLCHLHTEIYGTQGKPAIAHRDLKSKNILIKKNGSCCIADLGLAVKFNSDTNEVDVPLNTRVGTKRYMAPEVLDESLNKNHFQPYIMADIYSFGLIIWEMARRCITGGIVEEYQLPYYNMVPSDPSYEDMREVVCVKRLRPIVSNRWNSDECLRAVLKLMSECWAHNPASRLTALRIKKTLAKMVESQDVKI

Work on C[C@@H]1CNC[C@H](C)N1c1ccc(-c2cnc3c(-c4cccc5c(CO)cccc45)cnn3c2)cc1 [Compound 20, (5-(6-(4-((2R,6S)-2,6-dimethylpiperazin-1-yl)phenyl)pyrazolo[1,5-a]pyrimidin-3-yl)naphthalen-1-yl)methanol] yielded an IC50 (ALK3) of 240 nM, an IC50 (ALK5) of 21700 nM and an IC50 [1] of 1550 nM. For the same compound, the IC50 (ALK4) was 3960 nM, the IC50 (ALK1) was 22 nM and the IC50 (ALK2 [2]) was 16 nM. The IC50 (ALK6) was 3710 nM and the IC50 (ALK2 [3]) was 14 nM.
For CC(=O)c1cccc2c(-c3cnn4cc(-c5ccc(N6[C@H](C)CNC[C@@H]6C)cc5)cnc34)cccc12 [Compound 24, 1-(5-(6-(4-((2R,6S)-2,6-dimethylpiperazin-1-yl)phenyl)pyrazolo[1,5-a]pyrimidin-3-yl)naphthalen-1-yl)ethanone], the IC50 (ALK3) was 59 nM, the IC50 (ALK5) was 26900 nM and the IC50 [1] was 580 nM. It also gave an IC50 (ALK4) of 1450 nM, an IC50 (ALK1) of 107 nM and an IC50 (ALK2 [2]) of 30 nM. It also gave an IC50 (ALK6) of 300 nM and an IC50 (ALK2 [3]) of 333 nM.
Work on C[C@@H]1CNC[C@H](C)N1c1ccc(-c2cnc3c(-c4cccc5c(C#N)cccc45)cnn3c2)cc1 [Compound 25, 5-(6-(4-((2R,6S)-2,6-dimethylpiperazin-1-yl)phenyl)pyrazolo[1,5-a]pyrimidin-3-yl)-1-naphthonitrile] yielded an IC50 (ALK3) of 123 nM, an IC50 (ALK5) of 5340 nM and an IC50 [1] of 2580 nM. It also gave an IC50 (ALK4) of 1210 nM, an IC50 (ALK1) of 75 nM and an IC50 (ALK2 [2]) of 27 nM. The IC50 (ALK6) was 568 nM and the IC50 (ALK2 [3]) was 114 nM.
For C[C@@H]1CNC[C@H](C)N1c1ccc(-c2cnc3c(-c4ccc(-c5nn[nH]n5)c5ccccc45)cnn3c2)cc1 [Compound 26, 3-(4-(1H-tetrazol-5-yl)naphthalen-1-yl)-6-(4-((2R,6S)-2,6-dimethylpiperazin-1-yl)phenyl)pyrazolo[1,5-a]pyrimidine], the IC50 (ALK3) was 391 nM, the IC50 (ALK5) was 6110 nM and the IC50 [1] was 1860 nM. It also gave an IC50 (ALK4) of 3040 nM, an IC50 (ALK1) of 48 nM and an IC50 (ALK2 [2]) of 13 nM. The IC50 (ALK6) was 1910 nM and the IC50 (ALK2 [3]) was 2990 nM.
CNS(=O)(=O)c1cccc2c(-c3cnn4cc(-c5ccc(N6[C@H](C)CNC[C@@H]6C)cc5)cnc34)cccc12 [Compound 41, 5-(6-(4-((2R,6S)-2,6-dimethylpiperazin-1-yl)phenyl)pyrazolo[1,5-a]pyrimidin-3-yl)-N-methylnaphthalene-1-sulfonamide] showed an IC50 (ALK3) of 1600 nM, an IC50 (ALK5) greater than 10000 nM and an IC50 [1] of 2940 nM. It also gave an IC50 (ALK4) greater than 10000 nM, an IC50 (ALK1) of 540 nM and an IC50 (ALK2 [2]) of 120 nM. It also gave an IC50 (ALK6) of 6500 nM and an IC50 (ALK2 [3]) of 148 nM.
NS(=O)(=O)c1cccc(-c2cnn3cc(-c4ccc(CCN5CCCCC5)cc4)cnc23)c1 [Compound 75, 3-(6-(4-(2-(piperidin-1-yl)ethyl)phenyl)pyrazolo[1,5-a]pyrimidin-3-yl)benzenesulfonamide] showed an IC50 (ALK3) of 6300 nM, an IC50 (ALK5) greater than 10000 nM and an IC50 [1] of 13500 nM. It also gave an IC50 (ALK4) greater than 10000 nM, an IC50 (ALK1) of 570 nM and an IC50 (ALK2 [2]) of 120 nM. It also gave an IC50 (ALK6) greater than 10000 nM and an IC50 (ALK2 [3]) of 467 nM.
Compound CNS(=O)(=O)c1cccc(-c2cnn3cc(-c4ccc(N5[C@H](C)CNC[C@@H]5C)cc4)cnc23)c1 [Compound 76, 3-(6-(4-((2R,6S)-2,6-dimethylpiperazin-1-yl)phenyl)pyrazolo[1,5-a]pyrimidin-3-yl)-N-methylbenzenesulfonamide] has an IC50 (ALK3) of 890 nM, an IC50 (ALK5) greater than 10000 nM and an IC50 [1] of 790 nM. The IC50 (ALK4) was 4800 nM, the IC50 (ALK1) was 58 nM and the IC50 (ALK2 [2]) was 20 nM. For the same compound, the IC50 (ALK6) was greater than 10000 nM and the IC50 (ALK2 [3]) was 67 nM.
For CCNS(=O)(=O)c1cccc(-c2cnn3cc(-c4ccc(N5[C@H](C)CNC[C@@H]5C)cc4)cnc23)c1 [Compound 77, 3-(6-(4-((2R,6S)-2,6-dimethylpiperazin-1-yl)phenyl)pyrazolo[1,5-a]pyrimidin-3-yl)-N-ethylbenzenesulfonamide], the IC50 (ALK3) was 2100 nM, the IC50 (ALK5) was greater than 10000 nM and the IC50 [1] was 423 nM. For the same compound, the IC50 (ALK4) was 4300 nM, the IC50 (ALK1) was 110 nM and the IC50 (ALK2 [2]) was 31 nM. The IC50 (ALK6) was greater than 10000 nM and the IC50 (ALK2 [3]) was 28 nM.
